Type in all cases: cell-based, murine and human
What all share (details): GAL4-PPAR LBD chimera

The target of one experiment is T1, PPAR-delta (UniProt Q03181).
T1 sequence (Q03181 1-441): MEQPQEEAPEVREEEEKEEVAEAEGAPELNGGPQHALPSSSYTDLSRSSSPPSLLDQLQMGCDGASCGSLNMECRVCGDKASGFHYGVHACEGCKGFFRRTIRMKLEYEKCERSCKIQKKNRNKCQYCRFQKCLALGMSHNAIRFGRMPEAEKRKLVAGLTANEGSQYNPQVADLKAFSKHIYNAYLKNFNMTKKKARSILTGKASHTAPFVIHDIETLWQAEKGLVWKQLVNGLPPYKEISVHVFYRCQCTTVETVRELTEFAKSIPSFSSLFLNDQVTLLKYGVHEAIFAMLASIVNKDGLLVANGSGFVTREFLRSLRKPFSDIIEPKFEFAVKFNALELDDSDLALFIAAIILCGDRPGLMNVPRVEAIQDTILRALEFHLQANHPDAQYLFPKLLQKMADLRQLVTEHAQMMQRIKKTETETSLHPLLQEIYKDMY
Description: PPAR-delta transactivation assay (GAL4 chimera, luciferase reporter) in CV-1 cells. The essentials:
(§1)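 CV-1 cells transiently transfected with murine or human PPAR-alpha, -gamma or -delta ligand-binding domain fused to GAL4 DNA-binding domain plus a GAL4-site luciferase reporter. After replating in phenol-red-free DME with 5% delipidated calf serum, cells were exposed to compound 20-24 h; luciferase read-out gave EC50.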
In general terms: Reporter assays use an easily measured gene product as a stand-in for the process of interest.

For a further experiment, the target named is T2, PPAR-alpha (UniProt Q07869).
T2 sequence (Q07869 1-468): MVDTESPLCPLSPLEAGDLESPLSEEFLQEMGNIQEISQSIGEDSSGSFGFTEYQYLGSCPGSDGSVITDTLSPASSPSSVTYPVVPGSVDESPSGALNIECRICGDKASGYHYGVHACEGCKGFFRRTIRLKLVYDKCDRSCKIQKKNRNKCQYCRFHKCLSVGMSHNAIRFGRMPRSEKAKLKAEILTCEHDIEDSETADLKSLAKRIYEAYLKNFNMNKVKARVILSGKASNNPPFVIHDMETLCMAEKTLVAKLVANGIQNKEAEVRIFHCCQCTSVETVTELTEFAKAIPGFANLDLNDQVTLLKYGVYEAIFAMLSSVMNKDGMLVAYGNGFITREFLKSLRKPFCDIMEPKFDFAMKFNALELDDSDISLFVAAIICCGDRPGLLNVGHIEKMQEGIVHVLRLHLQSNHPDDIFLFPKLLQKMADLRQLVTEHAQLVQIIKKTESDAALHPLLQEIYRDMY
Description: PPAR-alpha transactivation assay (GAL4 chimera, luciferase reporter) in CV-1 cells. The essentials: as §1

Another experiment concerns the target T3, PPAR-gamma (UniProt P37231).
T3 sequence (P37231 1-505): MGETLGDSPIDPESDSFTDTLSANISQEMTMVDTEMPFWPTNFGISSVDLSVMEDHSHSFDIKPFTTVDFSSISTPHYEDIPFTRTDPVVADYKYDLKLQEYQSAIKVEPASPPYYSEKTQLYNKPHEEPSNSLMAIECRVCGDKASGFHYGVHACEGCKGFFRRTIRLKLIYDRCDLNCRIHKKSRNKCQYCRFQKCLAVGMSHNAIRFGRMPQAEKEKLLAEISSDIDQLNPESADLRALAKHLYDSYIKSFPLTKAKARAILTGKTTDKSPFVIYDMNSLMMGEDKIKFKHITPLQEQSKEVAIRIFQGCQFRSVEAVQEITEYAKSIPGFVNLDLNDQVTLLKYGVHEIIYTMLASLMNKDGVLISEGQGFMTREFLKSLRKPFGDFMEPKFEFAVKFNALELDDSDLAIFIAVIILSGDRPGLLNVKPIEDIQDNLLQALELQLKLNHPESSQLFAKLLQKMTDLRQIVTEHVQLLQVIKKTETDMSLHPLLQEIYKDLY
Description: PPAR-gamma transactivation assay (GAL4 chimera, luciferase reporter) in CV-1 cells. In short, it runs like this:
as §1

Each structure is given as a SMILES string. pEC50: −log10 of the molar value.

In the case of `C[C@H]1CN(c2ccc(Cl)c(Cl)c2)CCN1S(=O)(=O)c1ccc2c(c1)C(C(=O)O)CC2` (stereo partly drawn) [Example 61, 6-[4-(3,4-Dichloro-phenyl)-(S)-methyl-piperazine-1-sulfonyl]-indan-1-carboxylic acid], the pEC50 at PPAR-delta, on PPAR-alpha and on PPAR-gamma was above 5.30 each time.

`C[C@H]1CN(c2ccc(OC(F)(F)F)cc2)CCN1S(=O)(=O)c1ccc2c(c1)C(C(=O)O)CC2` (stereo partly drawn) [Example 62, 6-[2-(S)-Methyl-4-(4-trifluoromethoxy-phenyl)-piperazine-1-sulfonyl]-indan-1-carboxylic acid]: the pEC50 at PPAR-delta is above 5.30; at PPAR-alpha, above 5.30; at PPAR-gamma, 4.00 to 5.30.

Take `C[C@H]1CN(c2ccc(C(F)(F)F)c(F)c2)CCN1S(=O)(=O)c1ccc2c(c1)C(C(=O)O)CC2` (stereo partly drawn) [Example 63, 6-[4-(3-Fluoro-4-trifluoromethyl-phenyl)-2-(S)-methyl-piperazine-1-sulfonyl]-indan-1-carboxylic acid]: the pEC50 on PPAR-delta, at PPAR-alpha and on PPAR-gamma was above 5.30 in each case.

On to `CCC1CN(S(=O)(=O)c2ccc3c(c2)C(C(=O)O)CC3)CCN1c1ccc(C(F)(F)F)cn1` (stereo not drawn) [Example 64, 6-[3-Ethyl-4-(5-trifluoromethyl-pyrdin-2-yl)-piperazine-1-sulfonyl]-indan-1-carboxylic acid], for which the negative-log EC50 (pEC50) at PPAR-delta, at PPAR-alpha and at PPAR-gamma was above 5.30 in each case.

On to `C[C@@H]1CN(S(=O)(=O)c2ccc3c(c2)C(C(=O)O)CC3)C[C@H](C)N1c1ccc(C(F)(F)F)cn1` (stereo partly drawn) [Example 65, 6-[cis-3,5-dimethyl-4-(5-trifluoromethyl-pyrdin-2-yl)-piperazine-1-sulfonyl]-indan-1-carboxylic acid], for which the pEC50 at PPAR-delta, on PPAR-alpha and at PPAR-gamma was above 5.30 each time.

On to `O=C(O)C1CCc2ccc(S(=O)(=O)N3CC=C(c4ccc(C(F)(F)F)cn4)CC3)cc21` (stereo not drawn) [Example 66, 6-(5-Trifluoromethyl-3,6-dihydro-2H-|2,4|bipyridinyl-1-sulfonyl)-indan-1-carboxylic acid], for which the negative logarithm of the EC50 (pEC50) on PPAR-delta is above 5.30; at PPAR-alpha, above 5.30; at PPAR-gamma, 4.00 to 5.30.

Take `O=C(O)C1CCc2ccc(S(=O)(=O)N3CCCN(c4ccc(C(F)(F)F)cn4)CC3)cc21` (stereo not drawn) [Example 67, 6-[4-(5-trifluoromethyl-pyridin-2-yl)-[1,4]diazepane-1-sulfonyl]-indan-1-carboxylic acid]: the pEC50 at PPAR-delta, on PPAR-alpha and at PPAR-gamma was above 5.30 throughout.

With `C[C@H]1CN(c2ccc(C(F)(F)F)cn2)C[C@H](C)N1S(=O)(=O)c1ccc2c(c1)C(C(=O)O)CC2` (stereo partly drawn) [Example 68, 6-[trans-2,6-(S,S)-dimethyl-4-(5-trifluoromethyl-pyrdin-2-yl)-piperazine-1-sulfonyl]-indan-1-carboxylic acid], the pEC50 at PPAR-delta, on PPAR-alpha and at PPAR-gamma was above 5.30 in each case.

Take `C[C@H]1CN(S(=O)(=O)c2ccc3c(c2)C(C(=O)O)CC3)C[C@H](C)N1c1ccc(C(F)(F)F)cn1` (stereo partly drawn) [Example 69, 6-[trans-3,5-(S,S)-dimethyl-4-(5-trifluoromethyl-pyrdin-2-yl)-piperazine-1-sulfonyl]-indan-1-carboxylic acid]: the pEC50 at PPAR-delta, at PPAR-alpha and on PPAR-gamma was above 5.30 in each case.

In the case of `C[C@@H]1CN(c2ccc(C(F)(F)F)c(F)c2)C[C@H](C)N1S(=O)(=O)c1ccc2c(c1)C(C(=O)O)CC2` (stereo partly drawn) [Example 70, 6-[cis-2,6-dimethyl-4-(3-fluoro-4-trifluoromethyl-phenyl)-piperazine-1-sulfonyl]-indan-1-carboxylic acid], the pEC50 on PPAR-delta is above 5.30; on PPAR-alpha, above 5.30; at PPAR-gamma, 4.00 to 5.30.

Regarding `O=C(O)C1CCc2ccc(S(=O)(=O)N3CCN(c4ccc(OC(F)(F)F)cc4)CC3)cc21` (stereo not drawn) [Example 71, 6-[4-(4-trifluoromethoxy-phenyl)-piperazine-1-sulfonyl]-indan-1-carboxylic acid], the pEC50 at PPAR-delta, on PPAR-alpha and at PPAR-gamma was above 5.30 in each case.

For the compound `CCC1CN(c2ccc(C(F)(F)F)cn2)CCN1S(=O)(=O)c1ccc2c(c1)C(C(=O)O)CC2` (stereo not drawn) [Example 72, 6-[2-ethyl-4-(5-trifluoromethyl-pyridin-2-yl)-piperazine-1-sulfonyl]-indan-1-carboxylic acid], the pEC50 on PPAR-delta, on PPAR-alpha and on PPAR-gamma was above 5.30 in each case.

Regarding `CC1(C)CN(S(=O)(=O)c2ccc3c(c2)C(C(=O)O)CC3)CCN1c1ccc(C(F)(F)F)cn1` (stereo not drawn) [Example 73, 6-[3,3-dimethyl-4-(5-trifluoromethyl-pyridin-2-yl)-piperazine-1-sulfonyl]-indan-1-carboxylic acid], the pEC50 at PPAR-delta was above 5.30; at PPAR-alpha it was 4.00 to 5.30; on PPAR-gamma, above 5.30.

In the case of `O=C(O)C1CCc2ccc(S(=O)(=O)N3CCN(c4ccc(C(F)(F)F)c(Cl)c4)CC3)cc21` (stereo not drawn) [Example 74, 6-[4-(3-chloro-4-trifluoromethyl-phenyl)-piperazine-1-sulfonyl]-indan-1-carboxylic acid], the pEC50 on PPAR-delta, on PPAR-alpha and at PPAR-gamma was above 5.30 throughout.

On to `C[C@@H]1CN(c2ccc(C(F)(F)F)cn2)C[C@H](C)N1S(=O)(=O)c1cccc2c1CC(C(=O)O)C2` (stereo partly drawn) [Example 77, 4-[cis-2,6-dimethyl-4-(5-trifluoromethyl-pyridin-2-yl)-piperazine-1-sulfonyl]-indan-2-carboxylic acid], for which the pEC50 on PPAR-delta is above 5.30; at PPAR-alpha, below 4.00; on PPAR-gamma it was below 4.00.

Consider `O=C(O)C1CCc2ccc(S(=O)(=O)N3C4CCC3CN(c3ccc(C(F)(F)F)cn3)C4)cc21` (stereo not drawn) [Example 78], for which the pEC50 is above 5.30 at PPAR-delta, 4.00 to 5.30 at PPAR-alpha and 4.00 to 5.30 at PPAR-gamma.

In the case of `C[C@@H]1CN(c2ccc(OC(F)(F)F)cc2)C[C@H](C)N1S(=O)(=O)c1cccc2c1CC(C(=O)O)C2` (stereo partly drawn) [Example 79, 4-[cis-2,6-dimethyl-4-(4-trifluoromethoxy-phenyl)-piperazine-1-sulfonyl]-indan-2-carboxylic acid], the values for the pEC50 at PPAR-delta, at PPAR-alpha and on PPAR-gamma were above 5.30, below 4.00 and below 4.00, respectively.

As to `C[C@@H]1CN(c2ccc(C(F)(F)F)c(F)c2)C[C@H](C)N1S(=O)(=O)c1cccc2c1CC(C(=O)O)C2` (stereo partly drawn) [Example 83, 4-[4-(3-fluoro-4-trifluoromethyl-phenyl)-cis-2,6-dimethyl-piperazine-1-sulfonyl]-indan-2-carboxylic acid], the pEC50 is above 5.30 on PPAR-delta, 4.00 to 5.30 at PPAR-alpha and 4.00 to 5.30 at PPAR-gamma.

As for `C[C@@H]1CN(c2ccc(OC(F)(F)F)cc2)C[C@H](C)N1S(=O)(=O)c1ccc2c(c1)CC(C(=O)O)C2` (stereo partly drawn) [Example 84, 5-[2,6-cis-dimethyl-4-(4-trifluoromethoxy-phenyl)-piperazine-1-sulfonyl]-indan-2-carboxylic acid], the pEC50 on PPAR-delta is 4.00 to 5.30; on PPAR-alpha it was below 4.00; on PPAR-gamma, 4.00 to 5.30.

Regarding `Cc1cc(N2C[C@@H](C)N(S(=O)(=O)c3ccc4c(c3)C(C(=O)O)CC4)[C@@H](C)C2)ccc1OC(F)F` (stereo partly drawn) [Example 85, 6-[4-(4-difluoromethoxy-3-methyl-phenyl)-2,6-dimethyl-piperazine-1-sulfonyl]-indan-1-carboxylic acid], the pEC50 on PPAR-delta was above 5.30; on PPAR-alpha, 4.00 to 5.30; at PPAR-gamma, 4.00 to 5.30.

The term pEC50 denotes the EC50 on a negative log10 scale, so that one unit is a factor of ten. Higher therefore signals a small EC50.

These data come from patent US7517884B2 (Kalypsys Inc., priority 1998, dated 2009).
